Reference: publication PMC10819888, “Benzimidazole-Based Derivatives as Apoptotic Antiproliferative Agents: Design, Synthesis, Docking, and Mechanistic Studies” (Molecules, 2024)

What was measured:
Experiment in all cases: NCI-60 one-dose assay
Assay type in all cases: cell-based
A498 = settings: Homo sapiens, A498 (Renal Cancer), read-out: Cell Inhibition Percent
Description: (§1) The final compounds were submitted to the National Cancer Institute, Bethesda, USA, for screening in vitro for anti-cancer. […] compounds, 4a–j, 5, and 6, were selected according to the Development Therapeutic Program (DTP) protocol. The selected compounds were evaluated for their in vitro cytotoxic activity against a panel of sixty cancer cell lines (NCI-60 cell line panel) derived from six cell lines panel of leukemia, nine cell lines of lung cancer, six cell lines of CNS cancer, seven cell lines of colon cancer, eight cell lines of melanoma, six cell lines of ovarian cancer, eight cell lines of renal cancer, two cell lines of prostate cancer, and eight cell lines of breast cancer, representing the full nine human systems as leukemia, melanoma, and cancers of the lung, colon, brain, breast, ovary, kidney, and prostate.
(§2) The selected compounds 4a–j, 5, and 6 were tested at a single concentration of 10 µM. The screening results for the selected compounds are illustrated in Table 1.
(§3) The NCI anti-cancer screening methodology has been described in detail elsewhere (http://www.dtp.nci.nih.gov, accessed on 20 February 2021). Following the Drug Evaluation Branch protocol, National Cancer Institute, Bethesda, USA, a primary anti-cancer assay was performed on approximately 60 human tumor cell line panels derived from nine neoplastic diseases.

A549/ATCC = settings: Homo sapiens, A549/ATCC (Non-Small Cell Lung Cancer), read-out: Cell Inhibition Percent
Description: as §1, §2, §3

BT-549 = settings: Homo sapiens, BT-549 (Breast Cancer), read-out: Cell Inhibition Percent
Description: as §1, §2, §3

HCC-2998 = settings: Homo sapiens, HCC-2998 (Colon Cancer), read-out: Cell Inhibition Percent
Description: as §1, §2, §3

HCT-15 = settings: Homo sapiens, HCT-15 (Colon Cancer), read-out: Cell Inhibition Percent
Description: as §1, §2, §3

HL-60(TB) = settings: Homo sapiens, HL-60(TB) (Leukemia), read-out: Cell Inhibition Percent
Description: as §1, §2, §3

HOP-62 = settings: Homo sapiens, HOP-62 (Non-Small Cell Lung Cancer), read-out: Cell Inhibition Percent
Description: as §1, §2, §3

HOP-92 = settings: Homo sapiens, HOP-92 (Non-Small Cell Lung Cancer), read-out: Cell Inhibition Percent
Description: as §1, §2, §3

HS 578T = settings: Homo sapiens, HS 578T (Breast Cancer), read-out: Cell Inhibition Percent
Description: as §1, §2, §3

HT29 = settings: Homo sapiens, HT-29, HT29 (Colon Cancer), read-out: Cell Inhibition Percent
Description: as §1, §2, §3

LOX IMVI = settings: Homo sapiens, LOX IMVI (Melanoma), read-out: Cell Inhibition Percent
Description: as §1, §2, §3

M14 = settings: Homo sapiens, M14 (Melanoma), read-out: Cell Inhibition Percent
Description: as §1, §2, §3

MALME-3M = settings: Homo sapiens, MALME-3M (Melanoma), read-out: Cell Inhibition Percent
Description: as §1, §2, §3

MDA-MB-435 = settings: Homo sapiens, MDA-MB-435 (Melanoma), read-out: Cell Inhibition Percent
Description: as §1, §2, §3

MDA-MB-468 = settings: Homo sapiens, MDA-MB-468 (Breast Cancer), read-out: Cell Inhibition Percent
Description: as §1, §2, §3

NCI-H226 = settings: Homo sapiens, NCI-H226 (Non-Small Cell Lung Cancer), read-out: Cell Inhibition Percent
Description: as §1, §2, §3

NCI-H23 = settings: Homo sapiens, NCI-H23 (Non-Small Cell Lung Cancer), read-out: Cell Inhibition Percent
Description: as §1, §2, §3

NCI-H322M = settings: Homo sapiens, NCI-H322M (Non-Small Cell Lung Cancer), read-out: Cell Inhibition Percent
Description: as §1, §2, §3

NCI-H460 = settings: Homo sapiens, NCI-H460 (Non-Small Cell Lung Cancer), read-out: Cell Inhibition Percent
Description: as §1, §2, §3

OVCAR-4 = settings: Homo sapiens, OVCAR-4 (ovarian cancer), read-out: Cell Inhibition Percent
Description: as §1, §2, §3

OVCAR-5 = settings: Homo sapiens, OVCAR-5 (ovarian cancer), read-out: Cell Inhibition Percent
Description: as §1, §2, §3

RPMI-8226 = settings: Homo sapiens, RPMI-8226 (Leukemia), read-out: Cell Inhibition Percent
Description: as §1, §2, §3

SF-268 = settings: Homo sapiens, SF-268 (CNS cancer), read-out: Cell Inhibition Percent
Description: as §1, §2, §3

SK-MEL-2 = settings: Homo sapiens, SK-MEL-2 (Melanoma), read-out: Cell Inhibition Percent
Description: as §1, §2, §3

SK-MEL-5 = settings: Homo sapiens, SK-MEL-5 (Melanoma), read-out: Cell Inhibition Percent
Description: as §1, §2, §3

SNB-75 = settings: Homo sapiens, SNB-75 (CNS cancer), read-out: Cell Inhibition Percent
Description: as §1, §2, §3

SR = settings: Homo sapiens, SR (Leukemia), read-out: Cell Inhibition Percent
Description: as §1, §2, §3

T-47D = settings: Homo sapiens, T47D, T-47D (Breast Cancer), read-out: Cell Inhibition Percent
Description: as §1, §2, §3

UACC-257 = settings: Homo sapiens, UACC-257 (Melanoma), read-out: Cell Inhibition Percent
Description: as §1, §2, §3

UACC-62 = settings: Homo sapiens, UACC-62 (Melanoma), read-out: Cell Inhibition Percent
Description: as §1, §2, §3

UO-31 = settings: Homo sapiens, UO-31 (Renal Cancer), read-out: Cell Inhibition Percent
Description: as §1, §2, §3

Compound: O=C(N/N=C/c1ccc(O)cc1)c1ccc2[nH]c(-c3ccc(Cl)cc3)nc2c1 [Compound 4i, N′-(4-Hydroxybenzylidene)-2-(4-chlorophenyl)-1H-benzimidazole-5-carbohydrazide]
- inhibition at 10 µM (A498): 5.34%
- inhibition at 10 µM (A549/ATCC): 0%
- inhibition at 10 µM (BT-549): 0%
- inhibition at 10 µM (HCC-2998): 0%
- inhibition at 10 µM (HCT-15): 0%
- inhibition at 10 µM (HL-60(TB)): 0%
- inhibition at 10 µM (HOP-62): 0%
- inhibition at 10 µM (HOP-92): 0%
- inhibition at 10 µM (HS 578T): 5.94%
- inhibition at 10 µM (HT29): 0%
- inhibition at 10 µM (LOX IMVI): 11.9%
- inhibition at 10 µM (M14): 0.44%
- inhibition at 10 µM (MALME-3M): 21.4%
- inhibition at 10 µM (MDA-MB-435): 0%
- inhibition at 10 µM (MDA-MB-468): 0%
- inhibition at 10 µM (NCI-H226): 20.6%
- inhibition at 10 µM (NCI-H23): 4.44%
- inhibition at 10 µM (NCI-H322M): 0.47%
- inhibition at 10 µM (NCI-H460): 0%
- inhibition at 10 µM (OVCAR-4): 0%
- inhibition at 10 µM (OVCAR-5): 0%
- inhibition at 10 µM (RPMI-8226): 1.52%
- inhibition at 10 µM (SF-268): 13.7%
- inhibition at 10 µM (SK-MEL-2): 0%
- inhibition at 10 µM (SK-MEL-5): 4.32%
- inhibition at 10 µM (SNB-75): 0%
- inhibition at 10 µM (SR): 2.26%
- inhibition at 10 µM (T-47D): 24.2%
- inhibition at 10 µM (UACC-257): 0%
- inhibition at 10 µM (UACC-62): 5.2%
- inhibition at 10 µM (UO-31): 15.9%

Compound: O=C(NN=Cc1ccc(Cl)cc1)c1ccc2[nH]c(-c3ccc(Cl)cc3)nc2c1 [Compound 4e, N′-(4-Chlorobenzylidene)-2-(4-chlorophenyl)-1H-benzimidazole-5-carbohydrazide]
- inhibition at 10 µM (A498): 43.9%
- inhibition at 10 µM (A549/ATCC): 127%
- inhibition at 10 µM (BT-549): 0%
- inhibition at 10 µM (HCC-2998): 96.3%
- inhibition at 10 µM (HCT-15): 95.3%
- inhibition at 10 µM (HL-60(TB)): 94.2%
- inhibition at 10 µM (HOP-62): 92%
- inhibition at 10 µM (HOP-92): 71.9%
- inhibition at 10 µM (HS 578T): 67%
- inhibition at 10 µM (HT29): 98.3%
- inhibition at 10 µM (LOX IMVI): 156%
- inhibition at 10 µM (M14): 80.3%
- inhibition at 10 µM (MALME-3M): 159%
- inhibition at 10 µM (MDA-MB-435): 61.2%
- inhibition at 10 µM (MDA-MB-468): 144%
- inhibition at 10 µM (NCI-H226): 0.67%
- inhibition at 10 µM (NCI-H23): 100%
- inhibition at 10 µM (NCI-H322M): 72.3%
- inhibition at 10 µM (NCI-H460): 134%
- inhibition at 10 µM (OVCAR-4): 118%
- inhibition at 10 µM (OVCAR-5): 76.3%
- inhibition at 10 µM (RPMI-8226): 97.2%
- inhibition at 10 µM (SF-268): 62%
- inhibition at 10 µM (SK-MEL-2): 61.1%
- inhibition at 10 µM (SK-MEL-5): 63.8%
- inhibition at 10 µM (SNB-75): 1.6%
- inhibition at 10 µM (SR): 124%
- inhibition at 10 µM (T-47D): 113%
- inhibition at 10 µM (UACC-257): 68.3%
- inhibition at 10 µM (UACC-62): 83.2%
- inhibition at 10 µM (UO-31): 78.4%
